Reference: patent US5466716A, “Liposomal trimethylsphingosine” (The Biomembrane Institute, priority 1994, dated 1995)

Columns and labels:
[1] = system: protein kinase-C; conditions: in vitro, Tamaoki & Nakano; cited from earlier work
[2] = system: GMP-140; assay: GMP-140 expression on platelets (flow cytometry, mAb AC1.2); type: cell-based, human
Procedure: FIGS. 11A and 11B depict results of representative experiments assessing the percentage of platelets capable of binding an anti-GMP-140 antibody following exposure to various agents. The percentage binding activity was determined in a flow cytometer. SPN is sphingosine; H-7 is 1-(5-isoquinolinylsulfonyl)-2-methylpiperazine; Cal is calphostin-C; TMS is trimethylsphingosine; and DMS is dimethylsphingosine.
GMP-140 expression was determined by (i) flow cytometry with mAb AC1.2, which is directed to GMP-140 and obtained from Dr. Furie (Tufts Univ. Sch. Med., Boston, Mass.) and (ii) adhesion of HL60 cells on platelet-coated solid phase.
A suspension of platelets (1×10^8 /ml) in Tyrode's buffer was preincubated with inhibitor at pH 7.2, 37° C., for 5 minutes, then supplemented with activator, either thrombin (final concentration 1 U/ml) or phorbol 12-myristate 13-acetate (PMA (final concentration 10^-7 M), and the mixture was incubated at 37° C. for 10 minutes. Platelets were fixed with an equal volume of 2% (w/v) paraformaldehyde in PBS and washed 2 times with PBS containing 1% (w/v) BSA.
The paraformaldehyde-fixed platelets were incubated with 50 μl of mAb AC1.2 (2.5 μg/ml) at room temperature for 30 minutes. Platelets were washed 2 times with PBS containing 1% (w/v) BSA, supplemented with 50 μl of fluorescein isothiocyanate-labeled goat anti-mouse Ig (purchased from Tago Co., Burlingame, Calif.), incubated at room temperature for 30 minutes and again washed 2 times with PBS containing 1% (w/v) BSA. As a negative control, paraformaldehyde-fixed platelets were incubated with mouse IgG instead of mAb AC1.2 and treated as described above.
The platelets were analyzed in an Epics flow cytometer (Coulter Corp.) with suitable gating. To calculate the inhibitory effect of various reagents, the mean fluorescence intensity of resting platelets (obtained on incubation of platelets without activator) was subtracted from the value for the activated platelet sample.

[3] = system: neutrophils; assay: neutrophil transmigration through HUVEC monolayer; type: cell-based, human; conditions: for neutrophil transmigration (number of cells transmigrated): Table II, control 100, 90 min
Procedure: (§1) A characteristic of neutrophils is the ability to adhere to activiated EC's and to migrate through the EC monolayer into the vascular or extravascular matrix. The effect of TMS on neutrophil interactions with EC's and their subsequent trans-endothelial migration thereof can be monitored in vitro using human umbilical endothelial cells (HUVEC's) (Luscinskas et al., J. Imm., 146, 1617, 1991). Neutrophils are added to a HUVEC monolayer and neutrophil-HUVEC interactions are assessed microscopically following fixation, embedding and staining of monolayer sections.
Cross-sections (2 μm) of the collagen bed with HUVEC's and neutrophils
were observed using a Zeiss light microscope with KPL W10 ahd Ph2 Neoflua
16 lenses. The number of cells transmigrated were counted for each view.
(§2) HUVEC's and culture media were purchased from Cell Systems (Kirkland, Wash.). The cells were maintained and cultured as described in Luscinskas et al., supra, with some modifications. Briefly, HUVEC's were maintained in 10 ml tissue culture flasks on a collagen type I bed obtained from rat tail (Upstate Biotechnology Inc, Lake Placid, N.Y.) with CS-complete medium, CS-growth factor and CS-AF-1 (Cell Systems). Cells became confluent within 2 to 4 days when incubated in 5% CO2 at 37° C.
For the transmigration assay, thick gels were formed in 24-well tissue culture plates. Preparation of the gel solution was carried out at 4° C. Eight parts of collagen solution (Vitrogen 100, from bovine tendon which contained less than 5 ng/ml endotoxin; Celtrix Labs, Palo Alto, Calif.), one part of 10×RPMI and one part of alkaline solution (2.2 g NaHCO3 in 100 ml of 0.05N NaOH and 200 mM HEPES) were mixed gently and distributed at 0.7 ml/well. The solution was left for 4 hr at 37° C. to eliminate air bubbles, then allowed to gel in a 37° C. oven for 3 hr. The wells were washed with 1.0 ml of CS-complete medium with attachment factors at least 4 times and every 3 to 6 hr during further incubation at 37° C. in 5% CO2.
HUVEC's at a passage level of less than 3 were detached from 10 ml tissue culture flasks with 3 ml of Trypsin-EDTA at 37° C. for 30 to 60 sec. Immediately, 3 ml of M199 with 20% heat-inactivated FCS was added. Cells were collected by centrifugation. The pellet was resuspended in 10 ml of CS-complete medium with attachment factors. Homogeneous cell suspensions were plated at 0.7 ml to each well and the plates were incubated for 3 hr at 37° C. The supernatant, which contains dead cells, was aspirated carefully and fresh complete medium with attachment factors was added.
The HUVEC monolayer in 24-well tissue culture plates were washed with M199 without FCS, then incubated with 1 ml/well of IL-1β (Boehringer Mannheim Biochemical Products, Indianapolis, Ind.) dissolved in M199 with 1% heat-inactivated FCS (HIFCS) at 10 U/ml. The plates were incubated at 37° C., 5% CO2 for 4 hr then washed gently with 1 ml of M199. The purified neutrophil suspension (1.5×10^6 cells/ml) in M199 containing 1% HIFCS was pre-incubated with TMS, or other effectors, for 10 min at 37° C. After aspirating the media in the well, 0.5 ml of the neutrophil suspension were added onto the HUVEC monolayer. The tissue culture plate was incubated for 90 min at 37° C.
The culture was terminated by gently aspirating the cell suspension, adding 1 ml of 10% formaldehyde in PBS and stored at 4° C. overnight for fixation. The edge of the collagen bed was cut with a small spatula along the wall 2 hr before removal from the well. The collagen bed, which has HUVEC's on the surface and transmigrated neutrophils within was embedded in paraffin, sectioned and followed by staining with hematoxylin-eosin for microscopic examination.

[4] = neutrophil viability (trypan blue exclusion); type: cell-based, human; conditions: neutrophils, Table III, control 94
Procedure: (§3) The viability was evaluated by trypan blue exclusion assay. The cell
(§4) incubated at 37° C. for 10 min with effectors. The aliquot was
(§5) mixed with an equal amount of trypan blue solution and immediately counte
(§6) under a Nikon light microscope.

[5] = system: neutrophils; assay: phagokinetic activity of neutrophils on gold sol-coated plates; type: cell-based, human
Procedure: The phagokinetic activity of neutrophils on gold sol-coated plates can be determined by a technique essentially as taught in Albrecht-Buehler (Cell, 11, 395, 1977). […] Thus, the inhibitory effect of TMS on phagokinetic activity is not dependent on cytotoxicity.
.sctn. The area swept by neutrophils was determined in photographs of the
monolayers. The regions cleared by neutrophil movement were then cut out
Phagokinetic activity was observed by tracing tracks of neutrophils moving on a glass substrate covered with gold colloid particles. The technique was described originally by Albrecht-Buehler, supra, using 3T3 and other cell lines. Briefly, 22×22 mm square glass coverslips (Corning Glass Works, Corning, N.Y.) were dipped for 1 min into 1% BSA prepared in Milli Q water. The BSA solution was prepared fresh each day and passed through 0.20 μm Nalgene filters (Nalgene Labware Division, Rochester, N.Y.).
The coverslip then was drained by touching a Kim-wipe paper towel to its edge, dipped into 100% ethanol and rapidly and completely dried in a 85° C. hot airstream. The coverslip was placed in a 3.5 cm Falcon plastic dish. Then 5.4 ml of AuCl4 H and 18 ml of 36.5 mM Na2 CO3 were added to 33 ml of distilled water and heated. Immediately after reaching the boiling point, 5.4 ml of 0.1% formaldehyde in water were added quickly and mixed. The suspension of gold particles forming a brownish color was distributed immediately onto the dish (2 ml each) and the coverslip was incubated for 2 hr at 37° C.
Particle-coated coverslips were washed in PBS, then twice in RPMI 1640 and finally put in another 3.5 cm Falcon plastic dish containing 2 ml of RPMI 1640 with glutamate and pyruvate. The coverslips were stored at 4° C. and used within 24 hr after preparation.
The freshly-purified neutrophils (1×10^4 cells/plate) were added onto the colloid-coated coverslip. TMS and other effectors were added into the medium on the plate. As a control, the solvent of the effectors (50% ethanol) was added at an equal amount. At that concentration (0.1%), ethanol brought no significant effect on neutrophil activities. To observe cell recovery from exposure to the effectors, neutrophils (2×10^5 cells/ml) were pre-incubated at 37° C. with 12 μM of TMS, SPN and DMS, then distributed to the dish dropwise, diluting the effectors 200-fold. Incubation was conducted under 5% CO2 at 37° C. for 2 hr and terminated by adding 200 μl of 10% formaldehyde. Microscopic examination of each plate was performed with a Nikon microscope, connected to a Polaroid camera for recordings. Phagokinetic activity was measured by tracing the track of a neutrophil. The track was recorded with photographs, then the area was measured by cutting and weighing there swept area.

[6] = water solubility; type: physicochemical; conditions: particularly at physiologic pH
Source text: For comparison purposes those same test cells also are exposed to sphingosine and N,N-dimethylsphingosine.

[7] = system: HUVEC's; assay: morphologic damage to endothelial cells (HUVEC's); type: cell-based, human; conditions: staurosporine 2 μM, calphostin C 5 μM
Procedure: as §1, §2
The HUVEC monolayer in 24-well tissue culture plates were washed with M199 without FCS, then incubated with 1 ml/well of IL-1β (Boehringer Mannheim Biochemical Products, Indianapolis, Ind.) dissolved in M199 with 1% heat-inactivated FCS (HIFCS) at 10 U/ml. The plates were incubated at 37° C., 5% CO2 for 4 hr then washed gently with 1 ml of M199. […]

[8] = system: phosphoinositide turnover; assay: fMLP-induced phosphoinositide turnover in neutrophils (32P incorporation); type: cell-based, human; conditions: Table VI, 1 μM fMLP alone, control 100
Procedure: Amount of ^32 P in PIP and PIP2 was measured using TLC separation. The spots on TLC plates were scraped off and the radioactivity therein was measured with a Beckman scintillation counter. Each spot was compared as to intensity with the identical spot of the control sample.
After incubation, the cells were washed and resuspended in the same buffer at a concentration of 1×10^7 cells/ml. Each suspension (1 ml) then was pretreated with TMS, SPN or DMS, or equal volume of 50% ethanol, for 10 min at 37° C. Then keeping the same temperature, fMLP was added to a final concentration of 1.0 μM. Two minutes later, the reaction was terminated by adding 3.75 ml of chloroform/methanol (1:2) to each cell suspension, followed by sonication for 15 min. An additional 1.25 ml of chloroform, 1.25 ml of water and 50 μl of acetone were added and the total mixture was mixed and left overnight.
Following centrifugation of the mixture, the phospholipids were extracted by Folch's partition method, taking the lower phase from the cell lysate. […] The TLC plate was developed with control phospholipids, in a solvent comprising chloroform/methanol/4M NaOH at a ratio of 45:35:10 and containing 0.1% CDTA (trans-1,2-diaminocyclohexane-N,N,N',N'-tetraacetic acid) for 65 min at 37° C. The bands were identified by staining the control phospholipids with primuline and visualization under ultraviolet light. Autoradiography was performed with Kodak diagnostic film GBX-2 (Rochester N.Y.) by exposing overnight at 37° C.

[9] = system: neutrophils; assay: neutrophil viability (trypan blue exclusion); type: cell-based, human; conditions: Table V, 37° C., 10 min, in % (unit assumed)
Procedure: as §3, §4, §5, §6

[10] = Homo sapiens, Neutrophil, 1.5 h, read-out: Number of Cells/View
[11] = Homo sapiens, Neutrophil, 2 h, read-out: Area Swept

**Q.** With `CC1CNCCN1S(=O)(=O)c1cccc2cnccc12` (stereo not shown) [H-7, 1-(5-isoquinolinylsulfonyl)-2-methylpiperazine] as the molecule, how does the “concentration reported to inhibit protein kinase-C” value [1] read?
**A.** 15 µM

**Q.** And the “inhibition of GMP-140 expression” value ([2]; PMA-induced, FIG. 11B)?
**A.** Neither SPN nor H-7 showed inhibition

**Q.** What about the “inhibition of GMP-140 expression” value ([2]; thrombin-induced, FIG. 11A) of the same molecule?
**A.** no inhibition

**Q.** And the activity at 200 µM [3, 10]?
**A.** 38 ± 12%

**Q.** And the viability at 10 min, 200 µM ([4]; 200 μM)?
**A.** 79 ± 7.1%

**Q.** What about the activity at 200 µM [5, 11] of the same molecule?
**A.** 27 ± 6%

**Q.** Which water solubility [6] does the source give for `CCCCCCCCCCCCC/C=C/[C@@H](O)[C@H](CO)NC` [N-monomethylsphingosine] here?
**A.** less water soluble

**Q.** With `CN[C@@H]1C[C@H]2O[C@@](C)([C@@H]1OC)n1c3ccccc3c3c4c(c5c6ccccc6n2c5c31)C(=O)NC4` [Staurosporine] as the molecule, how does the activity at 2 µM [3, 10] read?
**A.** 52 ± 25%

**Q.** What about the viability at 10 min, 2 µM ([4]; 2 μM) of the same molecule?
**A.** 83 ± 3.6%

**Q.** And the activity at 0.2 µM [5, 11]?
**A.** 13 ± 12%

**Q.** And the “morphologic damage to EC's” value [7]?
**A.** striking morphologic damage to EC's

**Q.** For `CSCC[C@H](NC=O)C(=O)N[C@@H](CC(C)C)C(=O)N[C@@H](Cc1ccccc1)C(=O)O` [fMLP, formyl-methionyl-leucyl-phenylalanine, reference compound], which PIP labeling [8] is on record?
**A.** 182 ± 39

**Q.** With Ceramide as the molecule, how does the “neutrophil transmigration (number of cells transmigrated)” value (shortened to “neutrophil transmigration”) ([3]; 4 μM) read?
**A.** 92 ± 24

**Q.** And the “neutrophil transmigration” value ([3]; 15 μM)?
**A.** 87 ± 27

**Q.** What about the “neutrophil transmigration” value ([3]; 45 μM) of the same molecule?
**A.** 83 ± 16

**Q.** And the Viability of neutrophils ([9]; 5 μM)?
**A.** 98 ± 2

**Q.** And the Viability of neutrophils ([9]; 15 μM)?
**A.** 96 ± 1

**Q.** And the Viability of neutrophils ([9]; 45 μM)?
**A.** 91 ± 3

**Q.** What about the “Area Swept” value ([5]; Table I, 4.5 μM, control 100, 120 min) of the same molecule?
**A.** 109 ± 25%
